These compounds were tested on 3T3-L1 (assay: Glucose consumption in differentiated mouse 3T3L1 cells in low-glucose medium at 100 ug/ml after 24 hrs by glucose-oxidase method (Rvb =2.35 +/- 0.19 mmol/L)). Conditions: not given.
Assay type: functional
Work on `CCCCCCCC/C=C\CCCCCCCC(=O)Oc1ccc2c(=O)c(-c3ccc(OC)cc3)coc2c1` [OLEOYL FORMONONETIN] yielded an Activity of 6.95 mmol/L.

What follows are compounds tested on 3T3-L1 (assay: Antiproliferative activity against mouse 3T3L1 cells after 48 hrs by MTT assay). Conditions: not given.
Assay type: functional
Design: concentration or dose not given beside the values
Work on `CCCCC/C=C\C=C\CCCCCCCCC(=O)Oc1ccc2c(=O)c(Cc3ccc(OC)cc3)coc2c1` yielded an Activity of -4.37%.
`CCCCC/C=C\C=C\CCCCCCCCC(=O)Oc1ccc2c(c1)C(=O)/C(=C/c1ccc(Br)cc1)O2` gave an Activity of 11.09%.
`CCCCCCCC/C=C\CCCCCCCC(=O)Oc1ccc2c(c1)C(=O)/C(=C/c1ccc(Br)cc1)O2` gave an Activity of -6.62%.
`C=CCCCCCCCCC(=O)Oc1ccc2c(=O)c(Cc3ccc(OC)cc3)coc2c1` showed an Activity of -17.45%.
`CCCCCCCCCCCCCCCCCC(=O)Oc1ccc2c(c1)C(=O)/C(=C/c1ccc(F)cc1)O2` was tested, and the Activity was -9.45%.
For `CCCCCCCCCCCCCCCC(=O)Oc1ccc2c(c1)C(=O)/C(=C/c1ccc(Br)cc1)O2`, the Activity was 1.05%.
`C=CCCCCCCCCC(=O)Oc1ccc2c(c1)C(=O)/C(=C/c1cccc([N+](=O)[O-])c1)O2` was tested, and the Activity was -8.37%.
Work on `CCCCCCCC/C=C\CCCCCCCC(=O)Oc1ccc2c(c1)C(=O)/C(=C/c1ccc(OC)c(OC)c1)O2` yielded an Activity of 12.53%.
`CCCCCCCCCCCCCCCCCC(=O)Oc1ccc2c(c1)C(=O)/C(=C/c1ccc(OC)cc1)O2` showed an Activity of -10.93%.
In the case of `CCCCCCCCCCCCCCCCCC(=O)Oc1ccc2c(c1)O/C(=C\c1ccc(OC)cc1)C2=O`, the Activity is reported as 11.43%.
Compound `CCCCCCCC/C=C\CCCCCCCC(=O)Oc1ccc2c(=O)c(-c3ccc(OC)cc3)coc2c1` [OLEOYL FORMONONETIN] has an Activity of 10.91%.

These compounds were tested on 3T3-L1 (assay: Inhibition of adipogenesis in mouse 3T3L1 cells at 100 umol/L after 8 days by Oil red O-staining). Conditions: 3T3-L1, 192 h.
Assay type: functional
For `CCCCCCCC/C=C\CCCCCCCC(=O)Oc1ccc2c(c1)C(=O)/C(=C/c1ccc(Br)cc1)O2`, the inhibition at 100 µM was 16.6%.
Compound `CCCCCCCC/C=C\CCCCCCCC(=O)Oc1ccc2c(c1)C(=O)/C(=C/c1ccc(OC)c(OC)c1)O2` has an inhibition at 100 µM of 0%.
With `CCCCCCCCCCCCCCCCCC(=O)Oc1ccc2c(c1)O/C(=C\c1ccc(OC)cc1)C2=O` the inhibition at 100 µM was 0%.
In the case of `CCCCCCCC/C=C\CCCCCCCC(=O)Oc1ccc2c(=O)c(-c3ccc(OC)cc3)coc2c1` [OLEOYL FORMONONETIN], the inhibition at 100 µM is reported as 2.52%.

Each compound was assayed on 3T3-L1 (assay: Glucose consumption in differentiated mouse 3T3L1 cells in low-glucose medium at 50 ug/ml after 24 hrs by glucose-oxidase method (Rvb =2.41 +/- 0.22 mmol/L)). Conditions: not given.
Assay type: functional
Compound `CCCCCCCC/C=C\CCCCCCCC(=O)Oc1ccc2c(=O)c(-c3ccc(OC)cc3)coc2c1` [OLEOYL FORMONONETIN] has an Activity of 5.01 mmol/L.

The compounds below were run on 3T3-L1 (assay: Glucose consumption in differentiated mouse 3T3L1 cells in low-glucose medium after 24 hrs by glucose-oxidase method). Conditions: not given.
Assay type: functional, cell-based
In the case of `CCCCCCCC/C=C\CCCCCCCC(=O)Oc1ccc2c(=O)c(-c3ccc(OC)cc3)coc2c1` [OLEOYL FORMONONETIN], the Activity is reported as “Dose-dependent effect”.

Each compound was assayed on 3T3-L1 (assay: Glucose consumption in differentiated mouse 3T3L1 cells in high-glucose medium at 50 ug/ml after 24 hrs by glucose-oxidase method (Rvb =3.06 +/- 0.29 mmol/L)). Conditions: not given.
Assay type: functional
`CCCCCCCC/C=C\CCCCCCCC(=O)Oc1ccc2c(=O)c(-c3ccc(OC)cc3)coc2c1` [OLEOYL FORMONONETIN] showed an Activity of 6.52 mmol/L.

Each compound was assayed on 3T3-L1 (assay: Glucose consumption in differentiated mouse 3T3L1 cells in high-glucose medium at 100 ug/ml after 24 hrs by glucose-oxidase method (Rvb =3.12 +/- 0.32 mmol/L)). Conditions: not given.
Assay type: functional
With `CCCCCCCC/C=C\CCCCCCCC(=O)Oc1ccc2c(=O)c(-c3ccc(OC)cc3)coc2c1` [OLEOYL FORMONONETIN] the Activity was 7.49 mmol/L.

Each compound was assayed on 3T3-L1 (assay: Glucose consumption in differentiated mouse 3T3L1 cells in high-glucose medium after 24 hrs by glucose-oxidase method). Conditions: not given.
Assay type: functional, cell-based
In the case of `CCCCCCCC/C=C\CCCCCCCC(=O)Oc1ccc2c(=O)c(-c3ccc(OC)cc3)coc2c1` [OLEOYL FORMONONETIN], the Activity is reported as “Dose-dependent effect”.

From ChEMBL document CHEMBL1782017, “Synthesis and biological evaluation of new flavonoid fatty acid esters with anti-adipogenic and enhancing glucose consumption activities” (2011)
